Source: patent US8642070B2, “Feed additive composition for ruminants, and feed containing the same, and method of fabricating such feed additive composition for ruminants” (Bio Science Co., Ltd., priority 2004, dated 2014)

Test: Stability of the biologically active substance at the melting temperature of the spray melt blending liquid
Assay type: physicochemical
Settings: for Mean Content (%): liquid agitated 1 hour before injection
Protocol: Next, stability of the biologically active substance was studied in order to determine optimum temperature for the spray melt blending liquid used in the granulation through injection. […] However, when kept warmed below 75° C., the content remains high. Based on this fact, in the case of a rumen bypass product with a biologically active substance, employing a thermally vulnerable vitamins such as a calcium pantothenate, such vitamins can be contained in the preparation without suffering from any damage when granulation through injection is carried out, limiting the temperature of spray melt blending liquid to less than 75° C.

Row | Molecule | Mean Content (%) (Melting Temperature 60 °C) | Mean Content (%) (Melting Temperature 65 °C) | Mean Content (%) (Melting Temperature 70 °C) | Mean Content (%) (Melting Temperature 75 °C) | Mean Content (%) (Melting Temperature 80 °C) | content estimated when kept warmed above 90° C. (kept warmed above 90° C., extrapolated from Table 4)
1 | O=C(O)c1cccnc1 [Nicotinic Acid] | 99.5% | 98.2% | 100.3% | 101.2% | 102.0% | 
2 | CSCC[C@H](N)C(=O)O [Methionine] | 100.5% | 100.3% | 103.6% | 104.2% | 109.6% | 
3 | Calcium Pantothenate | 98.6% | 96.9% | 97.1% | 94.5% | 71.5% | below 50%
